One compound from US11337990B2, “Human milk oligosaccharides to promote growth of beneficial bacteria” (ABBOTT LABORATORIES, priority 2010, dated 2022) can be followed below.

In one test the test system is Caco-2 cells. In words: Alkaline phosphatase activity per milligram of protein (cell differentiation), Caco-2. The format is cell-based, human. The note with it: Example 48: LNnT or 2′FL 20, 200, 2000 mg/L; 6′SL 40, 400, 4000 mg/mL; 72 hours. As for the experimental part: In a second experiment, Caco-2 cells, which model more mature epithelial cells of the small intestine, are incubated in a humidified atmosphere of 5% carbon dioxide at 37° C. in the presence of LNnT or 2′FL at concentrations of 0 mg/L (“0”), 20 mg/L (“20”), 200 mg/L (“200”), and 2000 mg/L (“2000”) or in the presence of 6′SL at concentrations of 0 mg/mL (“0”), 40 mg/mL (“40”), 400 mg/mL (“400”), and 4000 mg/mL (“4000”) for 72 hours. The culture medium utilized is Dulbecco's Modified Eagle Medium (Life Technologies, Foster City Calif.) supplemented with 10% fetal calf serum and 2 mM glutamine. The controls (“energy”) consist of 91.5 mg lactose and 64.2 mg N-acetyllactosamine/L for LNnT; 133 mg lactose and 67 mg fucose/L for 2′FL; and 195 mg lactose and 205 mg sialic acid/L for 6′SL. The impact of the LNnT, 2′FL, and 6′SL at various levels and the control on Caco-2 cell proliferation is measured using a conventional BrdU assay, which measures the number of cells that have recently synthesized DNA. […] Additionally, the impact of LNnT, 2′FL, and 6′SL at various levels and the controls on the alkaline phosphatase activity per milligram of protein for Caco-2 cells, which is an indication of cell differentiation, is measured.

The test system of the next test is bifidobacteria strains. In words: Bacterial growth assay (OD600), panel of 12 strains. Conditions: 1% carbohydrate in sMRS+cysteine. The format is cell-based, Bifidobacterium. As for the experimental part:
Coy Laboratory Products, Grass Lake, Mich.). Subsequently, the cultures are passed twice on a semi-synthetic MRS medium ([…] which is supplemented with 1% (w/v) filter-sterilized glucose as the sole carbohydrate source. […] For bifidobacteria strains, the same procedure is followed except all media are supplemented with 0.5 g/l L-cysteine/HCl. [table] After the 2nd pass in sMRS+glucose+cysteine, the cultures are washed once with 10 mL of sterile sMRS+cysteine (no carbohydrate), resuspended in 10 ml of sterile sMRS+cysteine (no carbohydrate) and then used as a 1% inoculum. The carbohydrates are sterilized with a 0.22 micron filter and used at a 1% final concentration. Cell growth is performed in 250 μL of sMRS+cysteine covered with 50 μL of mineral oil in a Bioscreen 100-well Honeycomb plate. […] The plate reader is operated in discontinuous mode, with absorbance readings performed in 30-minute intervals, and preceded by 30-second shaking intervals at maximum speed. Controls consist of inoculated medium lacking carbohydrate. […] All three plates include a positive control (glucose) and negative control (no carbohydrate). The OD600 data for each carbohydrate is corrected by subtracting the OD600 of the basal media (sMRS)+cysteine from the sample plate for each probiotic. Maximum OD is determined by inspection of the corrected growth data. OD is determined by subtracting the initial corrected OD (time point 0) from the maximum corrected OD. Samples are grown in biologically independent triplicates and the resulting growth kinetic data are expressed as the mean of these replicates. For the growth curve plots, OD600 vs. time is first plotted for the bacteria grown on medium lacking carbohydrate (sMRS). For all other carbohydrates, the OD600 data is corrected by subtracting the OD600 of sMRS.

For another test, the system named is HT-29 cells. In words: HT-29 cell proliferation, BrdU assay. The format is cell-based, human. As for the experimental part:
In a first experiment, HT-29 cells, which model the immature epithelial cells of the small intestine, are incubated in a humidified atmosphere of 5% carbon dioxide at 37 C in the presence of LNnT at concentrations of 0 mg/L (“0”), 100 mg/L (“100”), 200 mg/L (“200”), and 400 mg/L (“400”) for either 48 hours or 72 hours. The culture medium utilized is Dulbecco's Modified Eagle Medium (Life Technologies, Foster City Calif.) supplemented with 10% fetal calf serum and 2 mM glutamine. The control consists of a combination of 91.5 mg lactose and 62.4 mg galactosamine (“LG”) per Liter of the Dulbecco's Modified Eagle Medium set forth above. The impact of the LNnT at various levels and the control on HT-29 cell proliferation is measured using a conventional BrdU assay, which measures the number of cells that have recently synthesized DNA.
In a first experiment, HT-29 cells, which model the immature epithelial cells of the small intestine, are incubated in a humidified atmosphere of 5% carbon dioxide at 37° C. in the presence of LNnT or 2′FL at concentrations of 0 mg/L (“0”), 20 mg/L (“20”), 200 mg/L (“200”), and 2000 mg/L (“2000”) or in the presence of 6′SL at concentrations of 0 mg/mL (“0”), 40 mg/mL (“40”), 400 mg/mL (“400”), and 4000 mg/mL (“4000”) for 72 hours. The culture medium utilized is Dulbecco's Modified Eagle Medium (Life Technologies, Foster City Calif.) supplemented with 10% fetal calf serum and 2 mM glutamine. The controls (“energy”) consist of 91.5 mg lactose and 64.2 mg N-acetyllactosamine/L for LNnT; 133 mg lactose and 67 mg fucose/L for 2′FL; and 195 mg lactose and 205 mg/L sialic acid for 6′SL. The impact of the LNnT, 2′FL, and 6′SL at various levels and the controls on HT-29 cell proliferation is measured using a conventional BrdU assay, which measures the number of cells that have recently synthesized DNA. […] Additionally, the impact of LNnT, 2′FL, and 6′SL at various levels and the controls on the alkaline phosphatase activity per milligram of protein for HT-29 cells, which is an indicator of cell differentiation, is measured.
(Dividing cells build labelled thymidine or BrdU into new DNA.)

SMILES strings stand for the structures. “Also recorded” adds a separate entry of the source.

Take `CC(=O)N[C@H]1[C@H](O[C@H]2[C@@H](O)[C@@H](CO)O[C@@H](O[C@H]3[C@H](O)[C@@H](O)C(O)O[C@@H]3CO)[C@@H]2O)O[C@H](CO)[C@@H](O[C@@H]2O[C@H](CO)[C@H](O)[C@H](O)[C@H]2O)[C@@H]1O` (mixture of isomers) [LNnT, Lacto-N-neotetraose]: in the test with Caco-2 cells, the “alkaline phosphatase activity per milligram of protein (cell differentiation)” value is “trend toward an increase”. Moreover, in the test with bifidobacteria strains, the “growth / ability to ferment (OD600)” value was “B. breve ATCC 15700, B. infantis ATCC 15697 and B. infantis M-63 are able to ferment”. For the same compound, the HT-29 cell proliferation result in the test with HT-29 cells (Example 47: 100, 200, 400 mg/L, 48 or 72 hours) was “reduced HT-29 cell proliferation; also recorded: inhibits intestinal cell proliferation”; with HT-29 cells (Example 48: LNnT or 2′FL 20, 200, 2000 mg/L, 6′SL 40, 400, 72 hours) it was “capable of reducing cell proliferation at higher doses; also recorded: inhibits intestinal cell proliferation in immature epithelial cells”.
